Data as given in the kinase profiling compilation of Christmann-Franck et al. (2016).

What was measured:
Test in all cases: KINOMEscan competition binding
ADCK4 (human) = ADCK4 (human) (UniProt Q96D53); conditions: compound 1.0 µM
IRAK1 (human) = IRAK1 (human) (UniProt P51617); conditions: compound 1.0 µM
AXL (human) = AXL (human) (UniProt P30530); conditions: compound 1.0 µM
HIPK1 (human) = HIPK1 (human) (UniProt Q86Z02); conditions: compound 1.0 µM
CDK9 (human) = CDK9 (human) (UniProt P50750); conditions: compound 1.0 µM
CDKL3 (human) = CDKL3 (human) (UniProt Q8IVW4); conditions: compound 1.0 µM
[1] = tested on: EGFR (human), P00533 [T790M/L858R]; conditions: compound 1.0 µM
MAPK1 (human) = MAPK1 (human) (UniProt P28482); conditions: compound 1.0 µM
PKN3 (M.tuberculosis) = PKN3 (M.tuberculosis) (UniProt Q6P5Z2); conditions: compound 1.0 µM
ERBB2 (human) = ERBB2 (human) (UniProt P04626); conditions: compound 1.0 µM
STK4 (human) = STK4 (human) (UniProt Q13043); conditions: compound 1.0 µM
RPS6KB1 (human) = RPS6KB1 (human) (UniProt P23443); conditions: compound 1.0 µM
RPS6KA2 KD1 (human) = RPS6KA2 KD1 (human) (UniProt Q15349); conditions: compound 1.0 µM
ROCK1 (human) = ROCK1 (human) (UniProt Q13464); conditions: compound 1.0 µM
PRKCH (human) = PRKCH (human) (UniProt P24723); conditions: compound 1.0 µM
NEK9 (human) = NEK9 (human) (UniProt Q8TD19); conditions: compound 1.0 µM
CSNK1A1 (human) = CSNK1A1 (human) (UniProt P48729); conditions: compound 1.0 µM
CSNK2A1 (human) = CSNK2A1 (human) (UniProt P68400); conditions: compound 1.0 µM
PKN2 (human) = PKN2 (human) (UniProt Q16513); conditions: compound 1.0 µM
ULK3 (human) = ULK3 (human) (UniProt Q6PHR2); conditions: compound 1.0 µM
MAPK15 (human) = MAPK15 (human) (UniProt Q8TD08); conditions: compound 1.0 µM
[2] = tested on: PIK3CA (human), P42336 [C420R]; conditions: compound 1.0 µM
NEK4 (human) = NEK4 (human) (UniProt P51957); conditions: compound 1.0 µM
CDK5 (human) = CDK5 (human) (UniProt Q00535); conditions: compound 1.0 µM
[3] = tested on: PIK3CA (human), P42336 [E545K]; conditions: compound 1.0 µM
BMPR2 (human) = BMPR2 (human) (UniProt Q13873); conditions: compound 1.0 µM
RAF1 (human) = RAF1 (human) (UniProt P04049); conditions: compound 1.0 µM
TRPM6 (human) = TRPM6 (human) (UniProt Q9BX84); conditions: compound 1.0 µM
RIOK3 (human) = RIOK3 (human) (UniProt O14730); conditions: compound 1.0 µM
[4] = tested on: FGFR3 (human), P22607 [G697C]; conditions: compound 1.0 µM
RET (human) = RET (human) (UniProt P07949); conditions: compound 1.0 µM
MAP2K4 (human) = MAP2K4 (human) (UniProt P45985); conditions: compound 1.0 µM
CDK4 CCND1 (human) = CDK4 CCND1 (human) (UniProt P11802+P24385); conditions: compound 1.0 µM
DCLK3 (human) = DCLK3 (human) (UniProt Q9C098); conditions: compound 1.0 µM
EPHA6 (human) = EPHA6 (human) (UniProt Q9UF33); conditions: compound 1.0 µM
CDKL2 (human) = CDKL2 (human) (UniProt Q92772); conditions: compound 1.0 µM
PTK2 (human) = PTK2 (human) (UniProt Q05397); conditions: compound 1.0 µM
IGF1R (human) = IGF1R (human) (UniProt P08069); conditions: compound 1.0 µM
CAMK1D (human) = CAMK1D (human) (UniProt Q8IU85); conditions: compound 1.0 µM
YSK4 (human) = YSK4 (human) (UniProt Q56UN5); conditions: for kinase still bound, per cent of control: compound 1.0 µM
PRKAA2 (human) = PRKAA2 (human) (UniProt P54646); conditions: compound 1.0 µM
IRAK4 (human) = IRAK4 (human) (UniProt Q9NWZ3); conditions: compound 1.0 µM
IRAK4 (human), sequence (Q9NWZ3 whole entry, looked up): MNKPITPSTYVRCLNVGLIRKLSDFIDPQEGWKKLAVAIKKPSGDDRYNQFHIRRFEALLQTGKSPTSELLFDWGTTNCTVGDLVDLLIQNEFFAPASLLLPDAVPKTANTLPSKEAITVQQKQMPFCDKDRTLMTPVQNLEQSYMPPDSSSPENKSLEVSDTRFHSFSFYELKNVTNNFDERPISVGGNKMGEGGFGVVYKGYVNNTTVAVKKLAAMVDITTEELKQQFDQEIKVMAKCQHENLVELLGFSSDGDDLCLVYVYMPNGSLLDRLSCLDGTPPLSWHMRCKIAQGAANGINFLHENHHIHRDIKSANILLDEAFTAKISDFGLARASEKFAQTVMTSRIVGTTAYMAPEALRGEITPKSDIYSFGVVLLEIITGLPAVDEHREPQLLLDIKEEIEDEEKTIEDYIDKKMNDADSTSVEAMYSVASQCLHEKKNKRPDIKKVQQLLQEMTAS

ULK3 (human), sequence (Q6PHR2 whole entry, looked up): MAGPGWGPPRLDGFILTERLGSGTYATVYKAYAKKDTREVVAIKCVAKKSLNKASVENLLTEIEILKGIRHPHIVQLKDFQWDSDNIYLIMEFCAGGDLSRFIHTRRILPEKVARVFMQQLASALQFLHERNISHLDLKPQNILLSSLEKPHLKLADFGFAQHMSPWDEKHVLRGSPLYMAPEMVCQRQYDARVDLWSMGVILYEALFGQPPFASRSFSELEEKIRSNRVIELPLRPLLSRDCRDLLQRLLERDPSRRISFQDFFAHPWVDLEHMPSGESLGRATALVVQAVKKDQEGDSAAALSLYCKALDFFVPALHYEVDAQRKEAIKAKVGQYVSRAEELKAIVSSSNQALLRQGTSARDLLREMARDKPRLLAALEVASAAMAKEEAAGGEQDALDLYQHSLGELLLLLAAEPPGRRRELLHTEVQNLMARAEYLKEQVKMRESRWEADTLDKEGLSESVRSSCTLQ
RAF1 (human), sequence (P04049 whole entry, looked up): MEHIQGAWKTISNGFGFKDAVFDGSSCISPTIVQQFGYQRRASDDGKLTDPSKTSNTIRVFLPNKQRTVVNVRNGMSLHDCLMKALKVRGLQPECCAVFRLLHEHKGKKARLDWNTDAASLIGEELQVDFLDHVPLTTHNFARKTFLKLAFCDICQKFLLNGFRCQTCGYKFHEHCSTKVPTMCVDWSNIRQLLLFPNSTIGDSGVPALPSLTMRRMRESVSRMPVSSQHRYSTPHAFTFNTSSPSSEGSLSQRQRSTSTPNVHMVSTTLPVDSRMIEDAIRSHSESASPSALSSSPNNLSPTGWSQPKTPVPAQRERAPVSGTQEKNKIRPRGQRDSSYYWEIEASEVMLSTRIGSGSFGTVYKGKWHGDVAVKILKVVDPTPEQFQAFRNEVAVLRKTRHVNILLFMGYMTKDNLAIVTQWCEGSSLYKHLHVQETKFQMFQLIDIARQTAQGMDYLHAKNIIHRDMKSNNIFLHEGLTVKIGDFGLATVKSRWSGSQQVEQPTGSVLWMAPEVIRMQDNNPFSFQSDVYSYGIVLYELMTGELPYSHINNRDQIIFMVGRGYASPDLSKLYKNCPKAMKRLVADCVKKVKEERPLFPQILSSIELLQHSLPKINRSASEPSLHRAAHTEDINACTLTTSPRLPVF
CDK9 (human), sequence (P50750 whole entry, looked up): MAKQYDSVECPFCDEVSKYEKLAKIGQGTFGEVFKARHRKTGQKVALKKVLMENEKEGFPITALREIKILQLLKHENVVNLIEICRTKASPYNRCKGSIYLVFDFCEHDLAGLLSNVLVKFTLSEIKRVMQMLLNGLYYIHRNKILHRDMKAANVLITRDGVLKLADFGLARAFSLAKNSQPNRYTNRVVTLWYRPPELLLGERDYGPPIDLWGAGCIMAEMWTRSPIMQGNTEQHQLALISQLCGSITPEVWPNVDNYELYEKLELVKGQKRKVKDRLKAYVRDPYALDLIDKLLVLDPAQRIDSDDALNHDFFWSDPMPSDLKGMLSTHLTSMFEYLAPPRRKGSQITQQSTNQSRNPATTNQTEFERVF
CDKL2 (human), sequence (Q92772 whole entry, looked up): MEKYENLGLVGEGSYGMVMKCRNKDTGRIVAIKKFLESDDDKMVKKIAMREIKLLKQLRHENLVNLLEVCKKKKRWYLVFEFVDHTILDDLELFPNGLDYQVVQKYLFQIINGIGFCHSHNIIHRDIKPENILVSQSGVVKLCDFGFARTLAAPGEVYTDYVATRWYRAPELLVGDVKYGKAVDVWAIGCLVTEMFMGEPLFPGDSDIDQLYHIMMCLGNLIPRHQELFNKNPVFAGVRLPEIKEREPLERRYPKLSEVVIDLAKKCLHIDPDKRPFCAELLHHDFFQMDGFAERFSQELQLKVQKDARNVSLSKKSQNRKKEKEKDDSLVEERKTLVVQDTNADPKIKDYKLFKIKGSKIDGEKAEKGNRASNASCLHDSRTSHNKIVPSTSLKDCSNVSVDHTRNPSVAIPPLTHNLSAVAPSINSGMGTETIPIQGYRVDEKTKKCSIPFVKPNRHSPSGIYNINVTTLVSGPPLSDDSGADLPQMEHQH
ROCK1 (human), sequence (Q13464 whole entry, looked up): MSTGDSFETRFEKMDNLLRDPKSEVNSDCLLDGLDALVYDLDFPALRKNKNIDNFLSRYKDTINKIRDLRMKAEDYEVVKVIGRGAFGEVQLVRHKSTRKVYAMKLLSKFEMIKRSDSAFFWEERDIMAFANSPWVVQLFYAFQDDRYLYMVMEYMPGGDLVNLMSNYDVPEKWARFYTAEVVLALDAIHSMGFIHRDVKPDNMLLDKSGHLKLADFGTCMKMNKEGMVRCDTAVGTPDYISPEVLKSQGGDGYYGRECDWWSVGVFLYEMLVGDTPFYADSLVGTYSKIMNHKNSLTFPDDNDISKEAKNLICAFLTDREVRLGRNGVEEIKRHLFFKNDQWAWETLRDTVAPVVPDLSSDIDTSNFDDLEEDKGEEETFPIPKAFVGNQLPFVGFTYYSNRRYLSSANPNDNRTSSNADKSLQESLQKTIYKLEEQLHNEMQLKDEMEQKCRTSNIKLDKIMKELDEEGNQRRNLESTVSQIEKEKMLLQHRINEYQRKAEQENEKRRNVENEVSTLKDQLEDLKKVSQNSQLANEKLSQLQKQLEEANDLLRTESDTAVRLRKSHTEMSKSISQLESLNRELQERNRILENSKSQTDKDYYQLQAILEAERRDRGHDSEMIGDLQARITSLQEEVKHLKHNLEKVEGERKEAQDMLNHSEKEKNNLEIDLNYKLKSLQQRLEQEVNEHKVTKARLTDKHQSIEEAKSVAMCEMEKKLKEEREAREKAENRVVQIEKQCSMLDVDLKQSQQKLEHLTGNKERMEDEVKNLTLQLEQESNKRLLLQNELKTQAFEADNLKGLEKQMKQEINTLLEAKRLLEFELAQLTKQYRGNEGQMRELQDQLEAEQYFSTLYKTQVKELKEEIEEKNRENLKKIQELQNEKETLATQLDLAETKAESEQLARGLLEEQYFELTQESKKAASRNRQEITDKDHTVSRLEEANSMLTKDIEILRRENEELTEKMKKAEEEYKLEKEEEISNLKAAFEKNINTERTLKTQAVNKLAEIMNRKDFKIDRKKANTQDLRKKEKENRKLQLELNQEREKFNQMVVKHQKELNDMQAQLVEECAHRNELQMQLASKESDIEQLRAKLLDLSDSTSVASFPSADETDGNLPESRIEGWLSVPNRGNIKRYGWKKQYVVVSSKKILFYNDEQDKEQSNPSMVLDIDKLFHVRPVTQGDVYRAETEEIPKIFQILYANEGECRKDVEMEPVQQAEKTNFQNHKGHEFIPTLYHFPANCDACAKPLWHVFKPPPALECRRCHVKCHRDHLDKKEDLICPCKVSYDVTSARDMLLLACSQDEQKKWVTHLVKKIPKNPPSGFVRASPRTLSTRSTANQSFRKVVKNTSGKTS
RET (human), sequence (P07949 whole entry, looked up): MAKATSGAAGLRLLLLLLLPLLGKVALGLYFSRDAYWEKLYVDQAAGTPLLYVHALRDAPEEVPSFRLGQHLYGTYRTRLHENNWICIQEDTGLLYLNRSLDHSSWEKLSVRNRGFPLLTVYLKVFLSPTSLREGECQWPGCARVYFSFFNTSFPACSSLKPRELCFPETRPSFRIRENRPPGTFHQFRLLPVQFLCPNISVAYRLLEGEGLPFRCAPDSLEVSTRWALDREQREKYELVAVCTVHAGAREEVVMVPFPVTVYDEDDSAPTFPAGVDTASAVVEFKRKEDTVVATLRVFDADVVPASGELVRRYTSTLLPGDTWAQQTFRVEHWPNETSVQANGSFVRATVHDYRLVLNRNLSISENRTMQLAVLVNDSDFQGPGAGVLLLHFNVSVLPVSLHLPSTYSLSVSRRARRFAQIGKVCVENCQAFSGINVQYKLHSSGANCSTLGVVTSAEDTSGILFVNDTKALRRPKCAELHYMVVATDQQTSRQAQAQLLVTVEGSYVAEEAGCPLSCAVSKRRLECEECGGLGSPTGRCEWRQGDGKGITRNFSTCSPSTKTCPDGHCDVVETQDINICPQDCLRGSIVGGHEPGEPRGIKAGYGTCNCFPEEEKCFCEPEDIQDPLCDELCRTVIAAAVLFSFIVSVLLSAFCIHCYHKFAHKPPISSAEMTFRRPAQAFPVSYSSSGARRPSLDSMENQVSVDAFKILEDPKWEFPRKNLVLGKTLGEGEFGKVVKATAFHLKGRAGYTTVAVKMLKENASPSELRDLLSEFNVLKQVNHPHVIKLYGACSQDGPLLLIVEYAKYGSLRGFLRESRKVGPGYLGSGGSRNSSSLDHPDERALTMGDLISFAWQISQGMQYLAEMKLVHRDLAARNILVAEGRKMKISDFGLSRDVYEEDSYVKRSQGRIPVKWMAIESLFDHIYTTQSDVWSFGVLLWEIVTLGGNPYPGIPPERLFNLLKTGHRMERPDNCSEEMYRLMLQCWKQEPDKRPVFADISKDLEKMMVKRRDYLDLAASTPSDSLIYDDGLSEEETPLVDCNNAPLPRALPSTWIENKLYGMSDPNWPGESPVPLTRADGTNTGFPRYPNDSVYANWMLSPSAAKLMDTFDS

SMILES: CN(C)C/C=C/C(=O)Nc1cccc(C(=O)Nc2ccc(Nc3nccc(/C(C#N)=C4\Nc5ccccc5S4)n3)cc2)c1
- kinase still bound, per cent of control (ADCK4 (human)): 48%
- kinase still bound, per cent of control (IRAK1 (human)): 1.2%
- kinase still bound, per cent of control (AXL (human)): 100%
- kinase still bound, per cent of control (HIPK1 (human)): 100%
- kinase still bound, per cent of control (CDK9 (human)): 100%
- kinase still bound, per cent of control (CDKL3 (human)): 100%
- kinase still bound, per cent of control [1]: 100%
- kinase still bound, per cent of control (MAPK1 (human)): 100%
- kinase still bound, per cent of control (PKN3 (M.tuberculosis)): 53%
- kinase still bound, per cent of control (ERBB2 (human)): 100%
- kinase still bound, per cent of control (STK4 (human)): 100%
- kinase still bound, per cent of control (RPS6KB1 (human)): 100%
- kinase still bound, per cent of control (RPS6KA2 KD1 (human)): 98%
- kinase still bound, per cent of control (ROCK1 (human)): 100%
- kinase still bound, per cent of control (PRKCH (human)): 100%
- kinase still bound, per cent of control (NEK9 (human)): 100%
- kinase still bound, per cent of control (CSNK1A1 (human)): 75%
- kinase still bound, per cent of control (CSNK2A1 (human)): 27%
- kinase still bound, per cent of control (PKN2 (human)): 87%
- kinase still bound, per cent of control (ULK3 (human)): 100%
- kinase still bound, per cent of control (MAPK15 (human)): 76%
- kinase still bound, per cent of control [2]: 100%
- kinase still bound, per cent of control (NEK4 (human)): 100%
- kinase still bound, per cent of control (CDK5 (human)): 100%
- kinase still bound, per cent of control [3]: 100%
- kinase still bound, per cent of control (BMPR2 (human)): 50%
- kinase still bound, per cent of control (RAF1 (human)): 91%
- kinase still bound, per cent of control (TRPM6 (human)): 100%
- kinase still bound, per cent of control (RIOK3 (human)): 100%
- kinase still bound, per cent of control [4]: 31%
- kinase still bound, per cent of control (RET (human)): 91%
- kinase still bound, per cent of control (MAP2K4 (human)): 100%
- kinase still bound, per cent of control (CDK4 CCND1 (human)): 100%
- kinase still bound, per cent of control (DCLK3 (human)): 100%
- kinase still bound, per cent of control (EPHA6 (human)): 100%
- kinase still bound, per cent of control (CDKL2 (human)): 28%
- kinase still bound, per cent of control (PTK2 (human)): 100%
- kinase still bound, per cent of control (IGF1R (human)): 100%
- kinase still bound, per cent of control (CAMK1D (human)): 100%
- kinase still bound, per cent of control (YSK4 (human)): 59%
- kinase still bound, per cent of control (PRKAA2 (human)): 100%
- kinase still bound, per cent of control (IRAK4 (human)): 71%

SMILES: CN(C)C/C=C/C(=O)Nc1cccc(C(=O)Nc2ccc(Nc3nccc(-c4cccnc4)n3)cc2)c1
- kinase still bound, per cent of control (ADCK4 (human)): 69%
- kinase still bound, per cent of control (IRAK1 (human)): 0.1%
- kinase still bound, per cent of control (AXL (human)): 100%
- kinase still bound, per cent of control (HIPK1 (human)): 3.6%
- kinase still bound, per cent of control (CDK9 (human)): 55%
- kinase still bound, per cent of control (CDKL3 (human)): 41%
- kinase still bound, per cent of control [1]: 100%
- kinase still bound, per cent of control (MAPK1 (human)): 100%
- kinase still bound, per cent of control (PKN3 (M.tuberculosis)): 69%
- kinase still bound, per cent of control (ERBB2 (human)): 92%
- kinase still bound, per cent of control (STK4 (human)): 45%
- kinase still bound, per cent of control (RPS6KB1 (human)): 68%
- kinase still bound, per cent of control (RPS6KA2 KD1 (human)): 100%
- kinase still bound, per cent of control (ROCK1 (human)): 22%
- kinase still bound, per cent of control (PRKCH (human)): 84%
- kinase still bound, per cent of control (NEK9 (human)): 48%
- kinase still bound, per cent of control (CSNK1A1 (human)): 19%
- kinase still bound, per cent of control (CSNK2A1 (human)): 17%
- kinase still bound, per cent of control (PKN2 (human)): 33%
- kinase still bound, per cent of control (ULK3 (human)): 7%
- kinase still bound, per cent of control (MAPK15 (human)): 7.1%
- kinase still bound, per cent of control [2]: 100%
- kinase still bound, per cent of control (NEK4 (human)): 83%
- kinase still bound, per cent of control (CDK5 (human)): 89%
- kinase still bound, per cent of control [3]: 100%
- kinase still bound, per cent of control (BMPR2 (human)): 64%
- kinase still bound, per cent of control (RAF1 (human)): 100%
- kinase still bound, per cent of control (TRPM6 (human)): 100%
- kinase still bound, per cent of control (RIOK3 (human)): 8.3%
- kinase still bound, per cent of control [4]: 100%
- kinase still bound, per cent of control (RET (human)): 100%
- kinase still bound, per cent of control (MAP2K4 (human)): 78%
- kinase still bound, per cent of control (CDK4 CCND1 (human)): 61%
- kinase still bound, per cent of control (DCLK3 (human)): 100%
- kinase still bound, per cent of control (EPHA6 (human)): 95%
- kinase still bound, per cent of control (CDKL2 (human)): 21%
- kinase still bound, per cent of control (PTK2 (human)): 100%
- kinase still bound, per cent of control (IGF1R (human)): 100%
- kinase still bound, per cent of control (CAMK1D (human)): 100%
- Kd (YSK4 (human)): 4.8 nM
- kinase still bound, per cent of control (YSK4 (human)): 0.1%
- kinase still bound, per cent of control (PRKAA2 (human)): 81%
- kinase still bound, per cent of control (IRAK4 (human)): 100%

SMILES: Cc1cc(NC(=O)c2cccc(NC(=O)/C=C/CN(C)C)c2)ccc1Nc1nccc(-c2cccnc2)n1
- kinase still bound, per cent of control (ADCK4 (human)): 93%
- kinase still bound, per cent of control (IRAK1 (human)): 13%
- kinase still bound, per cent of control (AXL (human)): 77%
- kinase still bound, per cent of control (HIPK1 (human)): 100%
- kinase still bound, per cent of control (CDK9 (human)): 100%
- kinase still bound, per cent of control (CDKL3 (human)): 100%
- kinase still bound, per cent of control [1]: 81%
- kinase still bound, per cent of control (MAPK1 (human)): 99%
- kinase still bound, per cent of control (PKN3 (M.tuberculosis)): 100%
- kinase still bound, per cent of control (ERBB2 (human)): 82%
- kinase still bound, per cent of control (STK4 (human)): 100%
- kinase still bound, per cent of control (RPS6KB1 (human)): 100%
- kinase still bound, per cent of control (RPS6KA2 KD1 (human)): 100%
- kinase still bound, per cent of control (ROCK1 (human)): 63%
- kinase still bound, per cent of control (PRKCH (human)): 94%
- kinase still bound, per cent of control (NEK9 (human)): 100%
- kinase still bound, per cent of control (CSNK1A1 (human)): 73%
- kinase still bound, per cent of control (CSNK2A1 (human)): 57%
- kinase still bound, per cent of control (PKN2 (human)): 58%
- kinase still bound, per cent of control (ULK3 (human)): 40%
- kinase still bound, per cent of control (MAPK15 (human)): 100%
- kinase still bound, per cent of control [2]: 99%
- kinase still bound, per cent of control (NEK4 (human)): 79%
- kinase still bound, per cent of control (CDK5 (human)): 100%
- kinase still bound, per cent of control [3]: 100%
- kinase still bound, per cent of control (BMPR2 (human)): 77%
- kinase still bound, per cent of control (RAF1 (human)): 93%
- kinase still bound, per cent of control (TRPM6 (human)): 98%
- kinase still bound, per cent of control (RIOK3 (human)): 72%
- kinase still bound, per cent of control [4]: 100%
- kinase still bound, per cent of control (RET (human)): 100%
- kinase still bound, per cent of control (MAP2K4 (human)): 70%
- kinase still bound, per cent of control (CDK4 CCND1 (human)): 92%
- kinase still bound, per cent of control (DCLK3 (human)): 100%
- kinase still bound, per cent of control (EPHA6 (human)): 100%
- kinase still bound, per cent of control (CDKL2 (human)): 82%
- kinase still bound, per cent of control (PTK2 (human)): 11%
- kinase still bound, per cent of control (IGF1R (human)): 93%
- kinase still bound, per cent of control (CAMK1D (human)): 100%
- kinase still bound, per cent of control (YSK4 (human)): 65%
- kinase still bound, per cent of control (PRKAA2 (human)): 84%
- kinase still bound, per cent of control (IRAK4 (human)): 93%
